For assay [1], the target named is T1, Melanin-concentrating hormone receptor 1 (Homo sapiens, UniProt Q99705). Nature of the assay: Displacement of [3H]SNAP from human MCH1 receptor expressed in HEK cells. It is filed as cell-based, HEK293. For orientation: Loss of bound radioactivity is the signal in a displacement assay; it reports binding, not function.
In assay [2] the target is T1, Melanin-concentrating hormone receptor 1. To be noted: HEK293.
Description: Antagonist activity at human MCH1 receptor expressed in HEK cells after 45 mins by [35S]GTP-gamma-S binding assay

The structures appear in SMILES notation.
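For pKb in this document: antagonism measured by [35S]GTPγS binding in HEK cells carrying human MCH1 receptor, 45 min incubation.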

T1 sequence (Q99705 whole entry): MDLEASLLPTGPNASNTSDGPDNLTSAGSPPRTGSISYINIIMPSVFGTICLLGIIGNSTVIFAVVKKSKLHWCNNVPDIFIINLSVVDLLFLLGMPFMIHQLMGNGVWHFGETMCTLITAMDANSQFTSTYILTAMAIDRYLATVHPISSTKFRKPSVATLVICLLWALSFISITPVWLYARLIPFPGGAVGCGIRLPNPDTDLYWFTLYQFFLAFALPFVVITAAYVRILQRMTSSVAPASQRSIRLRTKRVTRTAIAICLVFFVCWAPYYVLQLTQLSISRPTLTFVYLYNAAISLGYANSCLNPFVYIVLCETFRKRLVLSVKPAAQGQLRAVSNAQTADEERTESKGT

As to `COc1ccc(-c2ccc(CNC(=O)NC3CCN(Cc4ccc(C)cc4)CC3)cc2)cc1`, the Ki in assay [1] (read-out: Ki) worked out at 1460 nM. Besides, the pKb in assay [2] was 6.36.

Regarding `CCC(CO)(CO)NC(=O)N(CCC1CCN(Cc2ccc(C)cc2)CC1)Cc1ccc(-c2ccccc2OC)cc1`, the inhibition constant (Ki) in assay [1] (read-out: Ki) came out at 167 nM. The compound also showed a pKb in assay [2] of 6.65.

For the compound `Cc1ccc(CN2CCC(CCN(Cc3ccc(-c4ccccc4)cc3)C(=O)NC(C)(C)CO)CC2)cc1`, in assay [1] (read-out: Ki), the inhibition constant Ki was found to be 144 nM. In addition, the negative logarithm of the Kb (pKb) in assay [2] came out at 6.2.

For the compound `CCC(CO)(CO)NC(=O)N(CCC1CCN(Cc2ccc(C)cc2)CC1)Cc1ccc(-c2cccc(C#N)c2)cc1`, the inhibition constant (Ki) in assay [1] (read-out: Ki) stood at 769 nM. Further, in assay [2], the negative logarithm of the Kb (pKb) came out at 5.41.

Take `Cc1ccc(CN2CCC(CCN(Cc3ccc(-c4ccccc4)cc3)C(=O)NC(C)C)CC2)cc1`: the Ki in assay [1] (read-out: Ki) came out at 258 nM.

Take `COc1ccc(-c2ccc(CN(CC(=O)C(C)(C)O)C(=O)NC3CCN(Cc4ccc(C)cc4)CC3)cc2)cc1`: the negative logarithm of the Kb (pKb) in assay [2] is below 5.

For the compound `COc1ccccc1-c1ccc(CN(CCC2CCN(Cc3ccc(C)cc3)CC2)C(=O)NC(C)(C)CO)cc1`, the inhibition constant Ki in assay [1] (read-out: Ki) came out at 251 nM. Moreover, the negative logarithm of the Kb (pKb) in assay [2] is 6.88.

`Cc1ccc(CN2CCC(NC(=O)NCc3ccc(-c4cccc(C#N)c4)cc3)CC2)cc1`: in assay [1] (read-out: Ki), the inhibition constant Ki was 186 nM. In addition, the pKb in assay [2] amounted to 6.38.

`COc1ccccc1-c1ccc(CNC(=O)NC2CCN(Cc3ccc(C)cc3)CC2)cc1`: the Ki in assay [1] (read-out: Ki) was 425 nM. The pKb in assay [2] is 6.19.

Regarding `COc1ccccc1-c1ccc(CN(CCC2CCN(Cc3ccc(C)cc3)CC2)C(=O)NC(C)C)cc1`, the negative-log Kb (pKb) in assay [2] is below 5.

With `CCC(CO)(CO)NC(=O)N(CCC1CCN(Cc2ccc(C)cc2)CC1)Cc1ccc(-c2ccc(F)cc2)cc1`, the inhibition constant (Ki) in assay [1] (read-out: Ki) was 149 nM. Moreover, in assay [2], the negative logarithm of the Kb (pKb) turned out to be 6.54.

For the compound `Cc1ccc(CN2CCC(CCN(Cc3ccc(-c4cccc(C#N)c4)cc3)C(=O)NC(C)(C)CO)CC2)cc1`, the inhibition constant Ki in assay [1] (read-out: Ki) stood at 43 nM. Further, the pKb in assay [2] amounted to 7.08.

For `COc1ccc(-c2ccc(CN(CCC3CCN(Cc4ccc(C)cc4)CC3)C(=O)NC(C)(C)COC(C)=O)cc2)cc1`, the inhibition constant (Ki) in assay [1] (read-out: Ki) worked out at 595 nM. In addition, in assay [2], the negative-log Kb (pKb) amounted to 6.19.

`COc1ccc(-c2ccc(CN(CCC3CCN(Cc4ccc(C)cc4)CC3)C(=O)NC(C)(C)CO)cc2)cc1`: the Ki in assay [1] (read-out: Ki) was 204 nM. This compound also showed a pKb in assay [2] of 7.06.

Take `CCC(COC(C)=O)(COC(C)=O)NC(=O)N(CCC1CCN(Cc2ccc(C)cc2)CC1)Cc1ccc(-c2cccc(C#N)c2)cc1`: the Ki in assay [1] (read-out: Ki) came out at 1080 nM.

As for `COc1ccc(-c2ccc(CN(CCC3CCN(Cc4ccc(C)cc4)CC3)C(=O)NC(C)C)cc2)cc1`, the inhibitory constant (Ki) in assay [1] (read-out: Ki) worked out at 273 nM. This compound returned a pKb in assay [2] of 6.33.

With `Cc1ccc(CN2CCC(CCN(Cc3ccc(-c4ccc(F)cc4)cc3)C(=O)NC(C)C)CC2)cc1`, the inhibitory constant (Ki) was 314 nM in assay [1] (read-out: Ki) and 313 nM in assay [1] (read-out: Log Ki (converted)). For the same compound, the pKb in assay [2] amounted to 6.42.

As for `Cc1ccc(CN2CCC(NC(=O)N(CC(=O)C(C)(C)O)Cc3ccc(-c4ccc(F)cc4)cc3)CC2)cc1`, the Ki in assay [1] (read-out: Ki) stood at 5860 nM. Besides, in assay [2], the pKb came out at 5.34.

On to `CCC(COC(C)=O)(COC(C)=O)NC(=O)N(CCC1CCN(Cc2ccc(C)cc2)CC1)Cc1ccc(-c2ccccc2)cc1`, for which the inhibition constant Ki in assay [1] (read-out: Ki) was found to be 388 nM. This compound also registered a pKb in assay [2] of 6.58.

On to `CCC(CO)(CO)NC(=O)N(CCC1CCN(Cc2ccc(C)cc2)CC1)Cc1ccc(-c2ccccc2)cc1`, for which the Ki in assay [1] (read-out: Ki) came to 173 nM. Besides, the pKb in assay [2] came out at 6.83.

Take `Cc1ccc(CN2CCC(CCN(Cc3ccc(-c4cccc(C#N)c4)cc3)C(=O)NC(C)C)CC2)cc1`: the inhibition constant Ki in assay [1] (read-out: Ki) came out at 509 nM. Besides, the pKb in assay [2] was found to be 6.

Turning to `CCC(COC(C)=O)(COC(C)=O)NC(=O)N(CCC1CCN(Cc2ccc(C)cc2)CC1)Cc1ccc(-c2ccc(F)cc2)cc1`, in assay [1] (read-out: Ki), the inhibition constant Ki turned out to be 214 nM. In assay [2], this compound showed a pKb of 6.71.

As to `Cc1ccc(CN2CCC(NC(=O)NCc3ccc(-c4ccccc4)cc3)CC2)cc1`, the Ki in assay [1] (read-out: Ki) was 2640 nM; in assay [1] (read-out: Log Ki (converted)), 2660 nM. Besides, the negative logarithm of the Kb (pKb) in assay [2] was 5.97.

Turning to `CCC(COC(C)=O)(COC(C)=O)NC(=O)N(CCC1CCN(Cc2ccc(C)cc2)CC1)Cc1ccc(-c2ccc(OC)cc2)cc1`, the Ki in assay [1] (read-out: Ki) was determined as 170 nM. The pKb in assay [2] came to 6.86.

Take `COc1ccccc1-c1ccc(CN(CCC2CCN(Cc3ccc(C)cc3)CC2)C(=O)NC(C)(C)COC(C)=O)cc1`: the Ki in assay [1] (read-out: Ki) came out at 215 nM. In assay [2], this compound gave a negative logarithm of the Kb (pKb) of 6.14.

As for `CC(=O)OCC(C)(C)NC(=O)N(CCC1CCN(Cc2ccc(C)cc2)CC1)Cc1ccc(-c2ccccc2)cc1`, the Ki in assay [1] (read-out: Ki) worked out at 947 nM. In assay [2], this compound displayed a negative-log Kb (pKb) of 6.43.

Turning to `CC(=O)OCC(C)(C)NC(=O)N(CCC1CCN(Cc2ccc(C)cc2)CC1)Cc1ccc(-c2ccc(F)cc2)cc1`, in assay [1] (read-out: Ki), the Ki stood at 421 nM. In assay [2], this compound registered a negative-log Kb (pKb) of 6.39.

For `CCC(CO)(CO)NC(=O)N(CCC1CCN(Cc2ccc(C)cc2)CC1)Cc1ccc(-c2ccc(OC)cc2)cc1`, the Ki in assay [1] (read-out: Ki) was determined as 143 nM. Besides, in assay [2], the negative logarithm of the Kb (pKb) worked out at 6.93.

As to `Cc1ccc(CN2CCC(NC(=O)NCc3ccc(-c4ccc(F)cc4)cc3)CC2)cc1`, the Ki in assay [1] (read-out: Ki) is 545 nM; in assay [1] (read-out: Log Ki (converted)), 543 nM. In assay [2], this compound yielded a negative logarithm of the Kb (pKb) of 6.71.

As for `Cc1ccc(CN2CCC(NC(=O)N(CC(=O)C(C)(C)O)Cc3ccc(-c4cccc(C#N)c4)cc3)CC2)cc1`, the Ki in assay [1] (read-out: Ki) was 6380 nM. This compound also returned a pKb in assay [2] of 5.3.

On to `CC(=O)OCC(C)(C)NC(=O)N(CCC1CCN(Cc2ccc(C)cc2)CC1)Cc1ccc(-c2cccc(C#N)c2)cc1`, for which the inhibition constant Ki in assay [1] (read-out: Ki) was found to be 254 nM. For the same compound, the negative logarithm of the Kb (pKb) in assay [2] was determined as 6.63.

Turning to `COc1ccccc1-c1ccc(CN(CC(=O)C(C)(C)O)C(=O)NC2CCN(Cc3ccc(C)cc3)CC2)cc1`, the Ki in assay [1] (read-out: Ki) worked out at 6050 nM. The same compound returned a pKb in assay [2] of 5.43.

Take `Cc1ccc(CN2CCC(CCN(Cc3ccc(-c4ccc(F)cc4)cc3)C(=O)NC(C)(C)CO)CC2)cc1`: the Ki in assay [1] (read-out: Ki) amounted to 96.6 nM. Also, the pKb in assay [2] came to 7.38.

For the compound `CCC(COC(C)=O)(COC(C)=O)NC(=O)N(CCC1CCN(Cc2ccc(C)cc2)CC1)Cc1ccc(-c2ccccc2OC)cc1`, in assay [1] (read-out: Ki), the Ki turned out to be 1200 nM.

The Ki is a measure of affinity in units of concentration, obtained from inhibition or displacement. In general, pKb refers to −log10 of the Kb, conventionally taken in molar units. A high value points to a low Kb.

For the origin of these results see ChEMBL document CHEMBL1139918, “Novel series of substituted biphenylmethyl urea derivatives as MCH-R1 antagonists for the treatment of obesity” (Bioorg Med Chem, 2007).
